# Data as given in the NIST ThermoML archive (doi:10.1021/acs.jced.6b00781).
# ± gives the expanded uncertainty stated by the source.
# Details: Crystal
SMILES,Normal melting temperature (visual observation) [°C],Normal melting temperature (DTA) [°C]
Oc1cccc2ccccc12 [1-naphthol],97.39 ± 2,
Oc1ccc2ccccc2c1 [2-hydroxynaphthalene],,123.83 ± 2
